Tests used:
[1] = system: wild-type HIV-IIIB strain; assay: Anti-viral activity in cellular assay, MT4 LTR-EGFP cells (GFP fluorescence); assay type: cell-based, HIV-1; details: Human immunodeficiency virus 1, 72 h, pEC50 = -log10(EC50), measured three days after infection
Experimental: The compounds of the present invention were tested for anti-viral activity in a cellular assay, which was performed according to the following procedure.
The human T-cell line MT4 is engineered with Green Fluorescent Protein (GFP) and an HIV-specific promoter, HIV-1 long terminal repeat (LTR). This cell line is designated MT4 LTR-EGFP, and can be used for the in vitro evaluation of anti-HIV activity of investigational compounds. In HIV-1 infected cells, the Tat protein is produced which upregulates the LTR promotor and finally leads to stimulation of the GFP reporter production, allowing to measure ongoing HIV-infection fluorometrically.
(§1) Effective concentration values such as 50% effective concentration (EC50) can be determined and are usually expressed in μM. An EC50 value is defined as the concentration of test compound that reduces the fluorescence of HIV-infected cells by 50%. The 50% cytotoxic concentration (CC50 in μM) is defined as the concentration of test compound that reduces fluorescence of the mock-infected cells by 50%. The ratio of CC50 to EC50 is defined as the selectivity index (SI) and is an indication of the selectivity of the anti-HIV activity of the inhibitor. The ultimate monitoring of HIV-1 infection and cytotoxicity is done using a scanning microscope. Image analysis allows very sensitive detection of viral infection. Measurements are done before cell necrosis, which usually takes place about five days after infection, in particular measurements are performed three days after infection.
The following Table 6 lists pEC50 values against wild-type HIV-IIIB strain as well as pEC50 values for a selected number of compounds of the invention. A pEC50 value corresponds to −log10(EC50). Listed are compounds having a pEC50 value of at least 5.00.

[2] = Cytotoxicity in mock-infected MT4 CMV-EGFP cells (GFP fluorescence); assay type: cell-based; details: human, 50% cytotoxic concentration as negative log
Text: Analogously, MT4 cells are engineered with GFP and the constitutional cytomegalovirus (CMV) promotor. This cell line is designated MT4 CMV-EGFP, and can be used for the in vitro evaluation of cytotoxicity of investigational compounds. In this cell line, GFP levels are comparably to those of infected MT4 LTR-EGFP cells. Cytotoxic investigational compounds reduce GFP levels of mock-infected MT4 CMV-EGFP cells.
as §1

SMILES | EC50 [1] [nM] | CC50 at 3 days [2] [µM]
O=c1c2ccccc2c2nc3ccccn3c2n1-c1ccc([N+](=O)[O-])cc1 [Compound 1, 6-(4-nitrophenyl)-pyrido[2′,1′:2,3]imidazo-[4,5-c]isoquinolin-5(6H)-one] | 355 | > 32.4
O=c1c2ccccc2c2nc3cc(CO)ccn3c2n1-c1ccc([N+](=O)[O-])cc1 [Compound 9] | 724 | > 32.4
O=c1c2ccccc2c2nc3ccc(O)cn3c2n1-c1ccc([N+](=O)[O-])cc1 [Compound 10, 9-hydroxy-6-(4-nitrophenyl)-pyrido[2′,1′:2,3]imidazo[4,5-c]isoquinolin-5(6H)-one] | 155 | > 32.4
O=c1c2ccccc2c2nc3ccccn3c2n1-c1ccc(Cl)nc1 [Compound 18] | 8130 | > 32.4
Cc1ccc(-n2c(=O)c3ccccc3c3nc4ccccn4c32)cn1 [Compound 19] | 8910 | > 32.4
O=c1c2ccccc2c2nc3ccccn3c2n1-c1ccc(Br)nc1 [Compound 21, 6-(6-bromo-pyridin-3-yl)-pyrido-[2′,1′:2,3]imidazo[4,5-c]isoquinolin-5(6H)-one] | 4470 | > 32.4
Cc1ccc(-n2c(=O)c3ccccc3c3nc4ccccn4c32)cc1[N+](=O)[O-] [Compound 22] | 2880 | > 32.4
CCc1ccc(-n2c(=O)c3ccccc3c3nc4ccccn4c32)cn1 [Compound 27, 6-(6-ethyl-pyridin-3-yl)-pyrido[2′,1′:2,3]imidazo[4,5-c]-isoquinolin-5(6H)-one] | 5750 | 26.3
Nc1ccc2nc3c4ccccc4c(=O)n(-c4ccc(Cl)nc4)c3n2c1 [Compound 53, 9-amino-6-(6-chloro-pyridin-3-yl)-pyrido[2′,1′:2,3]imidazo-[4,5-c]isoquinolin-5(6H)-one] | 1660 | 4.57
O=C(Nc1ccc2nc3c4ccccc4c(=O)n(-c4ccc(Cl)nc4)c3n2c1)C(F)(F)F [Compound 61, N-[6-(6-chloro-pyridin-3-yl)-5,6-dihydro-5-oxo-pyrido[2′,1′:2,3]imidazo[4,5-c]isoquinolin-9-yl]-2,2,2-trifluoro-acetamide] | 2090 | > 32.4
O=c1c2ccccc2c2nc3ccc(NCCN4CCCC4)cn3c2n1-c1ccc([N+](=O)[O-])cc1 [Compound 67, 6-(4-nitrophenyl)-9-(2-pyrrolidin-1-yl-ethylamino)-pyrido[2′,1′:2,3]imidazo[4,5-c]isoquinolin-5(6H)-one] | 339 | 2.63
CN(C)CCN(C)c1ccc2nc3c4ccccc4c(=O)n(-c4ccc([N+](=O)[O-])cc4)c3n2c1 [Compound 68] | 1230 | 16.6
O=CNc1ccc2nc3c4ccccc4c(=O)n(-c4ccc([N+](=O)[O-])cc4)c3n2c1 [Compound 70] | 603 | > 32.4
O=c1c2ccccc2c2nc3ccc(OCCO)cn3c2n1-c1ccc([N+](=O)[O-])cc1 [Compound 74, 9-[2-hydroxy-ethoxy]-6-(4-nitrophenyl)-pyrido[2′,1′:2,3]imidazo[4,5-c]isoquinolin-5(6H)-one] | 871 | > 32.4
O=c1c2ccccc2c2nc3ccc(OP(=O)(O)O)cn3c2n1-c1ccc([N+](=O)[O-])cc1 [Compound 76, phosphoric acid 5,6-dihydro-6-(4-nitrophenyl)-5-oxo-pyrido[2′,1′:2,3]imidazo[4,5-c]isoquinolin-9-yl ester] | 74.1 | > 32.4
O=c1c2ccccc2c2nc3ccc(OP(=O)(O)O)cn3c2n1-c1ccc(Cl)nc1 [Compound 77] | 1120 | 25.7
O=c1c2ccccc2c2nc3ccc(OCCN4CCCC4)cn3c2n1-c1ccc([N+](=O)[O-])cc1 [Compound 78] | 3020 | > 32.4
CN(C)CCOc1ccc2nc3c4ccccc4c(=O)n(-c4ccc([N+](=O)[O-])cc4)c3n2c1 [Compound 81] | 3160 | 13.5

SMILES | EC50 [1] [nM] | CC50 at 3 days [2] [µM]
CN(C)CCCOc1ccc2nc3c4ccccc4c(=O)n(-c4ccc([N+](=O)[O-])cc4)c3n2c1 [Compound 82] | 1120 | 8.91
CN(C)/C=N/c1ccc2nc3c4ccccc4c(=O)n(-c4ccc(Cl)nc4)c3n2c1 [Compound 84, 6-(6-chloro-pyridin-3-yl)-9-[[(dimethylamino)-methylene]amino]-pyrido[2′,1′:2,3]imidazo[4,5-c]isoquinolin-5(6H)-one] | 6170 | 16.6
O=C(Nc1ccc2nc3c4ccccc4c(=O)n(-c4ccc([N+](=O)[O-])cc4)c3n2c1)C(F)(F)F [Compound 90] | 398 | > 32.4
O=c1c2ccccc2c2nc3sccn3c2n1-c1ccc([N+](=O)[O-])cc1 [Compound 98, 6-(4-nitrophenyl)-thiazolo[2′,3′:2,3]imidazo[4,5-c]isoquinolin-5(6H)-one] | 977 | > 32.4
O=c1c2cc(Br)ccc2c2nc3ccccn3c2n1-c1ccc([N+](=O)[O-])cc1 [Compound 101, 3-bromo-6-(4-nitrophenyl)-pyrido[2′,1′:2,3]imidazo[4,5-c]isoquinolin-5(6H)-one] | 2190 | > 100
O=c1c2sccc2c2nc3ccccn3c2n1-c1ccc([N+](=O)[O-])cc1 [Compound 103, 5-(4-nitrophenyl)-pyrido[2′,1′:2,3]imidazo[4,5-b]thieno[3,2-d]pyridin-4(5H)-one] | 1000 | > 32.4
Cc1cccc2c(=O)n(-c3ccc([N+](=O)[O-])cc3)c3c(nc4ccc(O)cn43)c12 [Compound 110, 9-hydroxy-1-methyl-6-(4-nitrophenyl)-pyrido[2′,1′:2,3]imidazo[4,5-c]isoquinolin-5(6H)-one] | 53.7 | 5.37
CNc1ccc2nc3c4ccccc4c(=O)n(-c4ccc([N+](=O)[O-])cc4)c3n2n1 [Compound 114] | 245 | > 32.4
O=c1c2ccccc2c2nc3ccc(NCCN4CCCC4)nn3c2n1-c1ccc([N+](=O)[O-])cc1 [Compound 115] | 912 | 0.832
O=c1c2ccccc2c2nc3ccc(NCCCO)nn3c2n1-c1ccc([N+](=O)[O-])cc1 [Compound 118] | 646 | > 32.4
CN(C)CCCNc1ccc2nc3c4ccccc4c(=O)n(-c4ccc([N+](=O)[O-])cc4)c3n2n1 [Compound 120] | 631 | 1.32
O=c1c2ccccc2c2nc3ccc(NCCO)nn3c2n1-c1ccc([N+](=O)[O-])cc1 [Compound 121, 9-[(2-hydroxyethyl)amino]-6-(4-nitrophenyl)-pyridazo[3′,2′:2,3]imidazo[4,5-c]isoquinolin-5(6H)-one] | 275 | 14.8
CN(C)CCNc1ccc2nc3c4ccccc4c(=O)n(-c4ccc([N+](=O)[O-])cc4)c3n2n1 [Compound 122] | 89.1 | 0.0692
O=c1c2ccccc2c2nc3ccc(NCc4ccccc4)nn3c2n1-c1ccc([N+](=O)[O-])cc1 [Compound 125] | 5250 | > 20
O=c1c2ccccc2c2nc3ccc(NCCO)nn3c2n1-c1ccc(Cl)nc1 [Compound 126] | 2140 | > 32.4
CCNCCNc1ccc2nc3c4ccccc4c(=O)n(-c4ccc([N+](=O)[O-])cc4)c3n2n1 [Compound 128] | 30.9 | 0.851
Nc1ccc2nc3c4ccccc4c(=O)n(-c4ccc([N+](=O)[O-])cc4)c3n2n1 [Compound 129, 9-amino-6-(4-nitrophenyl)-pyridazo-[3′,2′:2,3]imidazo[4,5-c]isoquinolin-5(6H)-one] | 166 | > 32.4
O=c1c2ccccc2c2nc3ccc(NCCNCCO)nn3c2n1-c1ccc([N+](=O)[O-])cc1 [Compound 130] | 219 | 3.55

— US7994187B2, “HIV inhibiting 3,4-dihydro-imidazo[4,5-B]pyridin-5-ones” (Tibotec Pharmaceuticals Ltd., priority 2006, dated 2011)
